pEC50: −log10 of the molar value.

Data set [1] can be described thus: CC50 assay (CellTiter-Glo) in Huh-7 HCV replicon cells. In kind it is cell-based, human. The note with it: human, 3 days incubation, CellTiter-Glo readout. As for the experimental part: (§1) The anti-HCV activity of the pyrido[3,2-d]pyrimidine derivatives of this invention was tested in a human hepatoma Huh-7 cell line harboring a HCV replicon. The assay comprised the following steps:
(§2) Step 1: Compound Preparation and Serial Dilution
(§3) • 1. for water soluble pyrido[3,2-d]pyrimidine derivatives, a volume of 500 μL of solution in cell media (DMEM, 10% FBS, P/S, L-Glutamine) was prepared with a concentration being twice the concentration of the starting final serial dilution concentration. A volume of 150 μL of the solution was added to the pre-specified wells in column 1 of a 96-well cell culture plate (PerkinElmer, white plate, cat. #6005181, for EC50 assay; black plate, cat. #6005182 for CC50 assay). The rest of the plate, columns 2-12, was filled with 100 μL of cell media. The plate was then placed on a Precision 2000 Workstation to start the serial dilution. Compounds were diluted three times each step from column 1 to column 10. Column 11 was used as a blank control (no compound added). • 2. for pyrido[3,2-d]pyrimidine derivatives requiring DMSO to dissolve, serial dilution is performed in 50% DMSO in a 384-well plate. A solution containing a compound at 100-fold concentration of the starting final serial dilution concentration was prepared in 50% DMSO and added to the pre-specified wells in column 1 of a polypropylene 384-well plate. The plate was then placed on a Precision 2000 Workstation to start the serial dilution. After the serial dilution, a volume of 2 μL of the solution was transferred from the 384-well plate to a 96-well cell culture plate containing 100 μL of cell media on a Biomek FX Workstation. The DMSO concentration in the final assay condition was 0.5% after cells are added to the plate and the total volume in each well is brought to 200 μL.
(§4) Step 2: to each well of the serial dilution plate prepared above, 100 μL of cell media containing 6000 suspended Huh-7 HCV replicon cells was added with a Multidrop workstation. The plates were incubated for 3 days at 37° C. with 5% CO2.
(§5) • a) for the EC50 assay, the media in a 96-well cell culture plate was aspirated with a Biotek EL405 plate-washer. A volume of 200 μL of a solution containing a 1:1 mixture of cell-lysis buffer (Promega, Luciferase Cell Culture Lysis 5× Reagent, cat. #E1531) and luciferase substrate solution (Promega, Luciferase Assay, cat.#E4550) was added to each well of the plate with Multidrop. The plate was incubated for 30 minutes at room temperature before the luminescence signal was measured with a TopCount plate-reader. • b) for the CC50 assay, a volume of 100 μL of pre-mixed CellTiter-Glo (Promega, cat.#G7572) solution is added directly to the cell culture in each well of the plate and the luminescence signal is measured with a TopCount plate-reader after 10 minutes of incubation at room temperature.
For orientation: In ATP-based viability assays light output follows the ATP content of the culture.

Data set [2] relates to HCV replicon in human hepatoma Huh-7 cell line. The data set is described as follows: Anti-HCV replicon assay (EC50, luciferase). In kind it is cell-based. Particulars: Hepatitis C virus, Huh-7, 72 h. As for the experimental part:
as §1, §2, §3, §4, §5

Regarding `Fc1ccc(-c2ccc3nc(NCc4ccc(N5CCCC5)cc4)nc(NCC(F)(F)F)c3n2)cc1` [Example 239, 6-(4-Fluoro-phenyl)-N2-(4-pyrrolidin-1-yl-benzyl)-N4-(2,2,2-trifluoro-ethyl)-pyrido[3,2-d]pyrimidine-2,4-diamine], in data set [1], the CC50 (commonly the concentration at which the toxic effect on the cells reaches its halfway point) at 3 days is 5 to 25 µM. In addition, the pEC50 (as a rule, −log10 of the EC50, conventionally taken in molar units) in data set [2] was above 7.00.

As for `NS(=O)(=O)c1ccc(CNc2nc(NCC(F)(F)F)c3nc(-c4ccnc(C(F)(F)F)c4)ccc3n2)cc1` [Example 168, 4-{[4-(2,2,2-Trifluoro-ethylamino)-6-(2-trifluoromethyl-pyridin-4-yl)-pyrido[3,2-d]pyrimidin-2-ylamino]-methyl}-benzenesulfonamide], the half-maximal cytotoxic concentration (CC50) at 3 days in data set [1] is above 25 µM. Further, the pEC50 in data set [2] was above 7.00.

Take `CCOc1nc(NCc2cc(F)c(F)c(F)c2)nc2ccc(-c3ccc(F)cc3)nc12` [Example 46, [4-Ethoxy-6-(4-fluoro-phenyl)-pyrido[3,2-d]pyrimidin-2-yl]-(3,4,5-trifluoro-benzyl)-amine]: the CC50 at 3 days in data set [1] lay within 5 to 25 µM. In data set [2], this compound showed a pEC50 above 7.00.

Compound `NS(=O)(=O)c1ccc(CNc2nc(NCC(F)(F)F)c3nc(-c4ccc(F)cc4)ccc3n2)cc1` [Example 149, 4-{[4-(2,2,2-Trifluoroethyl)-amino-6-(4-fluorophenyl)-pyrido[3,2-d]pyrimidin-2-ylamino]-methyl}-benzenesulfonamide] displayed a CC50 at 3 days in data set [1] of 5 to 25 µM. In data set [2], this compound showed a pEC50 above 7.00.

Compound `CCOc1nc(NCc2ccon2)nc2ccc(-c3ccc(F)cc3)nc12` [Example 116, [4-Ethoxy-6-(4-fluoro-phenyl)-pyrido[3,2-d]pyrimidin-2-yl]-isoxazol-3-ylmethyl-amine] yielded a CC50 at 3 days in data set [1] above 25 µM. In data set [2], this compound gave a pEC50 above 7.00.

`CCOc1nc(NCc2ccc(S(N)(=O)=O)cc2)nc2ccc(-c3ccc(F)cc3)nc12` [Example 109, 4-{[4-ethoxy-6-(4-fluoro-phenyl)-pyrido[3,2-d]pyrimidin-2-ylamino]-methyl}-benzenesulfonamide] displayed a CC50 at 3 days in data set [1] of 5 to 25 µM. The same compound had a pEC50 in data set [2] above 7.00.

`NS(=O)(=O)c1ccc(CNc2nc(NCC(F)(F)F)c3nc(-c4csc(N5CCCC5)n4)ccc3n2)cc1` [Example 170, 4-{[6-(2-Pyrrolidin-1-yl-thiazol-4-yl)-4-(2,2,2-trifluoro-ethylamino)-pyrido[3,2-d]pyrimidin-2-ylamino]-methyl}-benzenesulfonamide]: the CC50 at 3 days in data set [1] is below 5 µM. In data set [2], this compound gave a pEC50 above 7.00.

Regarding `NS(=O)(=O)c1ccc(CNc2nc(NCC(F)(F)F)c3nc(-c4ccc(F)cc4)ccc3n2)c(F)c1` [Example 246, 3-Fluoro-4-{[6-(4-fluoro-phenyl)-4-(2,2,2-trifluoro-ethylamino)-pyrido[3,2-d]pyrimidin-2-ylamino]-methyl}-benzenesulfonamide], the CC50 at 3 days in data set [1] fell in the range of 5 to 25 µM. In data set [2], this compound had a pEC50 above 7.00.

In data set [1], `Fc1ccc(-c2ccc3nc(NCCn4cncn4)nc(NCC(F)(F)F)c3n2)cc1` [Example 254, 6-(4-Fluoro-phenyl)-N2-(2-[1,2,4]triazol-1-yl-ethyl)-N4-(2,2,2-trifluoro-ethyl)-pyrido[3,2-d]pyrimidine-2,4-diamine] came in with a cytotoxic concentration (CC50) at 3 days above 25 µM. Moreover, in data set [2], the pEC50 was above 7.00.

`CCOc1nc(NCc2ccc(F)cc2)nc2ccc(-c3ccc(S(N)(=O)=O)cc3)nc12` [Example 83, 4-[4-Ethoxy-2-(4-fluoro-benzylamino)-pyrido[3,2-d]pyrimidin-6-yl]-benzenesulfonamide] came in with a CC50 at 3 days in data set [1] of 5 to 25 µM. In data set [2], the pEC50 is above 7.00.

In the case of `CS(=O)(=O)CCNc1nc(NCc2ccc(S(N)(=O)=O)cc2)nc2ccc(-c3ccc(F)cc3)nc12` [Example 153, 4-{[4-(2-Methanesulfonylethyl)-amino-6-(4-fluorophenyl)-pyrido[3,2-d]pyrimidin-2-ylamino]-methyl}-benzenesulfonamide], in data set [1], the CC50 at 3 days is below 5 µM. The compound also showed a pEC50 in data set [2] above 7.00.

With `CC(C)(C)OC(=O)NC1CCN(S(=O)(=O)c2cc(-c3ccc4nc(NCc5ccc(S(N)(=O)=O)cc5)nc(NCC(F)(F)F)c4n3)ccc2Cl)CC1` [Example 194, (1-{2-Chloro-5-[2-(4-sulfamoyl-benzylamino)-4-(2,2,2-trifluoro-ethylamino)-pyrido[3,2-d]pyrimidin-6-yl]-benzenesulfonyl}-piperidin-4-yl)-carbamic acid tert-butyl ester], the CC50 at 3 days in data set [1] is below 5 µM. Moreover, the pEC50 in data set [2] was above 7.00.

In data set [1], `CCOc1nc(NCc2ccc(F)cc2)nc2ccc(-c3ccc(NC(=O)OCCN4CCCC4)cc3)nc12` [Example 92, {4-[4-Ethoxy-2-(4-fluoro-benzylamino)-pyrido[3,2-d]pyrimidin-6-yl]-phenyl}-carbamic acid 2-pyrrolidin-1-yl-ethyl ester] showed a CC50 at 3 days below 5 µM. Moreover, the pEC50 in data set [2] was above 7.00.

On to `CCOc1nc(NCc2c(F)cc(OC)cc2F)nc2ccc(-c3ccc(F)cc3)nc12` [Example 36, (2,6-Difluoro-4-methoxy-benzyl)-[4-ethoxy-6-(4-fluoro-phenyl)-pyrido[3,2-d]pyrimidin-2-yl]-amine], for which the CC50 at 3 days in data set [1] is 5 to 25 µM. For the same compound, the pEC50 in data set [2] is above 7.00.

`CC(C)(O)CNc1nc(NCc2ccc(F)cc2)nc2ccc(-c3ccc(F)cc3)nc12` [Example 25, 1-[2-(4-Fluoro-benzylamino)-6-(4-fluoro-phenyl)-pyrido[3,2-d]pyrimidin-4-ylamino]-2-methyl-propan-2-ol]: the CC50 at 3 days in data set [1] is below 5 µM. Further, the pEC50 in data set [2] is above 7.00.

`CCOc1nc(NCc2ccc(F)cc2F)nc2ccc(-c3ccc(C(=O)NC4CC4)cc3)nc12` [Example 107, N-Cyclopropyl-4-[2-(2,4-difluoro-benzylamino)-4-ethoxy-pyrido[3,2-d]pyrimidin-6-yl]-benzamide]: in data set [1], the CC50 at 3 days lay in the range of 5 to 25 µM. The pEC50 in data set [2] is above 7.00.

In data set [1], `N#CC1(Nc2nc(NCc3ccc(S(N)(=O)=O)cc3)nc3ccc(-c4ccc(F)cc4)nc23)CC1` [Example 303, 4-{[4-(1-Cyano-cyclopropylamino)-6-(4-fluoro-phenyl)-pyrido[3,2-d]pyrimidin-2-ylamino]-methyl}-benzenesulfonamide] returned a CC50 at 3 days of 5 to 25 µM. Further, the pEC50 in data set [2] was above 7.00.

In data set [1], `NS(=O)(=O)c1cccc(CNc2nc(NCC(F)(F)F)c3nc(-c4ccc(F)cc4)ccc3n2)c1` [Example 238, 3-{[6-(4-Fluoro-phenyl)-4-(2,2,2-trifluoro-ethylamino)-pyrido[3,2-d]pyrimidin-2-ylamino]-methyl}-benzenesulfonamide] had a CC50 at 3 days below 5 µM. Moreover, the pEC50 in data set [2] is above 7.00.

As for `NC(=O)c1ccc(-c2ccc3nc(NCc4ccc(S(N)(=O)=O)cc4)nc(NCC(F)(F)F)c3n2)cc1` [Example 160], in data set [1], the CC50 at 3 days was 5 to 25 µM. This compound also showed a pEC50 in data set [2] above 7.00.

On to `Nc1cnc(-c2ccc3nc(NCc4ccc(S(N)(=O)=O)cc4)nc(NCC(F)(F)F)c3n2)cn1` [Example 187, 4-{[6-(5-Amino-pyrazin-2-yl)-4-(2,2,2-trifluoro-ethylamino)-pyrido[3,2-d]pyrimidin-2-ylamino]-methyl}-benzenesulfonamide], for which the CC50 at 3 days in data set [1] is above 25 µM. The same compound had a pEC50 in data set [2] above 7.00.

`NC(=O)c1ccc(-c2ccc3nc(NCc4ccc(F)cc4)nc(NCC(F)(F)F)c3n2)cc1` [Example 272, 4-[2-(4-Fluoro-benzylamino)-4-(2,2,2-trifluoro-ethylamino)-pyrido[3,2-d]pyrimidin-6-yl]-benzamide]: the CC50 at 3 days in data set [1] is below 5 µM. This compound showed a pEC50 in data set [2] above 7.00.

`C[C@H](O)C(=O)Nc1ccc(-c2ccc3nc(NCc4ccc(S(N)(=O)=O)cc4)nc(NCC(F)(F)F)c3n2)cc1` [Example 210, 2-Hydroxy-N-{4-[2-(4-sulfamoyl-benzylamino)-4-(2,2,2-trifluoro-ethylamino)-pyrido[3,2-d]pyrimidin-6-yl]-phenyl}-propionamide]: the CC50 at 3 days in data set [1] is above 25 µM. Besides, the pEC50 in data set [2] is above 7.00.

`NS(=O)(=O)c1ccc(CNc2nc(NCC(F)(F)F)c3nc(-c4ccc(F)c(S(=O)(=O)NC5CCNCC5)c4)ccc3n2)cc1` [Example 214, 2-Fluoro-N-piperidin-4-yl-5-[2-(4-sulfamoyl-benzylamino)-4-(2,2,2-trifluoro-ethylamino)-pyrido[3,2-d]pyrimidin-6-yl]-benzenesulfonamide]: in data set [1], the CC50 at 3 days fell in the range of 5 to 25 µM. The same compound gave a pEC50 in data set [2] above 7.00.

Source of the values: patent US8729089B2 (Gilead Sciences, Inc., priority 2006, dated 2014).
